From ChEMBL document CHEMBL1148023, “Synthesis and antibacterial activity of derivatives of 6-O-allylic acylides” (2007) come the findings set out here.

Converted amounts (≈) assume the structure as drawn.

Common to all, as to assay type: functional
In assay [1] the test system is Streptococcus pneumoniae. In words: Antibacterial activity against erythromycin-resistant Streptococcus pneumoniae 03-458 by broth microdilution method. (In general: In broth dilution the organism is exposed to a series of concentrations in liquid medium.)
The subject of assay [2] is Staphylococcus epidermidis. In words: Antibacterial activity against methicillin-sensitive Staphylococcus epidermidis 01-1004 by broth microdilution method.
The subject of assay [3] is Staphylococcus aureus. Nature of the assay: Antibacterial activity against methicillin-sensitive Staphylococcus aureus 01-431 by broth microdilution method.
Assay [4] has as its system Staphylococcus aureus. Nature of the assay: Antibacterial activity against methicillin-resistant Staphylococcus aureus 01-429 by broth microdilution method.
The subject of assay [5] is Staphylococcus aureus. In words: Antibacterial activity against methicillin-sensitive Staphylococcus aureus 01-481 by broth microdilution method.
The subject of assay [6] is Staphylococcus aureus. In words: Antibacterial activity against methicillin-resistant Staphylococcus aureus 01-483 by broth microdilution method.
The test system of assay [7] is Staphylococcus epidermidis. In words: Antibacterial activity against methicillin-sensitive Staphylococcus epidermidis 01-1091 by broth microdilution method.
Assay [8] has as its system Streptococcus pneumoniae. In words: Antibacterial activity against erythromycin-resistant Streptococcus pneumoniae 03-451 by broth microdilution method.
In assay [9] the test system is Staphylococcus epidermidis. Nature of the assay: Antibacterial activity against methicillin-resistant Staphylococcus epidermidis 01-1059 by broth microdilution method.
The test system of assay [10] is Streptococcus pyogenes. Nature of the assay: Antibacterial activity against erythromycin-susceptible Streptococcus pyogenes 01-740 by broth microdilution method.
Assay [11] relates to Staphylococcus aureus. Nature of the assay: Antibacterial activity against methicillin-sensitive Staphylococcus aureus 01-430 by broth microdilution method.
Assay [12] concerns Streptococcus pneumoniae. Nature of the assay: Antibacterial activity against Streptococcus pneumoniae ATCC 49619 by broth microdilution method.
Assay [13] deals with Streptococcus pyogenes. In words: Antibacterial activity against erythromycin-susceptible Streptococcus pyogenes 01-804 by broth microdilution method.
For assay [14], the system named is Staphylococcus aureus. In words: Antibacterial activity against methicillin-resistant Staphylococcus aureus 01-433 by broth microdilution method.
The subject of assay [15] is Staphylococcus epidermidis. In words: Antibacterial activity against methicillin-sensitive Staphylococcus epidermidis 01-1005 by broth microdilution method.
The test system of assay [16] is Staphylococcus epidermidis. In words: Antibacterial activity against methicillin-resistant Staphylococcus epidermidis 01-1090 by broth microdilution method.
For assay [17], the system named is Streptococcus pyogenes. Nature of the assay: Antibacterial activity against erythromycin-resistant Streptococcus pyogenes 03-680 by broth microdilution method.
Assay [18] deals with Streptococcus pneumoniae. Nature of the assay: Antibacterial activity against erythromycin-resistant Streptococcus pneumoniae 03-436 by broth microdilution method.
In assay [19] the test system is Streptococcus pyogenes. Nature of the assay: Antibacterial activity against erythromycin-susceptible Streptococcus pyogenes 01-469 by broth microdilution method.
The subject of assay [20] is Staphylococcus epidermidis. In words: Antibacterial activity against methicillin-resistant Staphylococcus epidermidis 01-1056 by broth microdilution method.

Take `C=CCO[C@@H]1C[C@@H](C)C(=O)[C@H](C)[C@H]2OC(=O)O[C@]2(C)[C@@H](CC)OC(=O)[C@H](C)[C@@H](OC(=O)Cc2ccccc2Cl)[C@H](C)[C@H]1OC1O[C@H](C)C[C@H](N(C)C)[C@H]1O` (stereo not given in full): the MIC (commonly the lowest concentration that inhibits growth of the organism) amounted to 2 µg/mL (≈ 2.56 µM) in the assay on Streptococcus pneumoniae [1]; 1 µg/mL (≈ 1.28 µM) in [2]; 1 µg/mL (≈ 1.28 µM) against Staphylococcus aureus [3]; 16 µg/mL (≈ 20.5 µM) in the assay with Staphylococcus aureus [4]; 4 µg/mL (≈ 5.13 µM) against Staphylococcus aureus [5]; 4 µg/mL (≈ 5.13 µM) against Staphylococcus aureus [6]. In addition, the MIC in assay [7] was determined as 1 µg/mL (≈ 1.28 µM); with Streptococcus pneumoniae [8], 4 µg/mL (≈ 5.13 µM); in assay [9] it was 8 µg/mL (≈ 10.3 µM); with Streptococcus pyogenes [10], 0.062 µg/mL (≈ 0.0795 µM); with Staphylococcus aureus [11], 1 µg/mL (≈ 1.28 µM); in the assay on Streptococcus pneumoniae [12], 0.25 µg/mL (≈ 0.32 µM). Besides, the MIC with Streptococcus pyogenes [13] came to 0.125 µg/mL (≈ 0.16 µM); in the assay with Staphylococcus aureus [14] it was 16 µg/mL (≈ 20.5 µM); in assay [15], 1 µg/mL (≈ 1.28 µM); in assay [16], 4 µg/mL (≈ 5.13 µM); in the assay with Streptococcus pyogenes [17], 16 µg/mL (≈ 20.5 µM); against Streptococcus pneumoniae [18], 8 µg/mL (≈ 10.3 µM). In addition, the MIC turned out to be 0.062 µg/mL (≈ 0.0795 µM) against Streptococcus pyogenes [19] and 32 µg/mL (≈ 41 µM) in assay [20].

As to `C=CCO[C@@H]1C[C@@H](C)C(=O)[C@H](C)[C@H]2OC(=O)O[C@]2(C)[C@@H](CC)OC(=O)[C@H](C)[C@@H](OC(=O)CCc2c[nH]c3ccccc23)[C@H](C)[C@H]1O[C@@H]1O[C@H](C)C[C@H](N(C)C)[C@H]1O`, the MIC (with Streptococcus pneumoniae [1]; in assay [2]; against Staphylococcus aureus [3]; in the assay on Staphylococcus aureus [4]; against Staphylococcus aureus [5]; against Staphylococcus aureus [6]) was 32 µg/mL (≈ 40.1 µM) in each case. Further, the MIC was 32 µg/mL (≈ 40.1 µM) in assay [7]; 32 µg/mL (≈ 40.1 µM) against Streptococcus pneumoniae [8]; 32 µg/mL (≈ 40.1 µM) in [9]; 1 µg/mL (≈ 1.25 µM) in the assay with Streptococcus pyogenes [10]; 32 µg/mL (≈ 40.1 µM) with Staphylococcus aureus [11]; 4 µg/mL (≈ 5.01 µM) against Streptococcus pneumoniae [12]. Also, the MIC in the assay on Streptococcus pyogenes [13] was determined as 1 µg/mL (≈ 1.25 µM); against Staphylococcus aureus [14], 32 µg/mL (≈ 40.1 µM); in assay [15], 32 µg/mL (≈ 40.1 µM); in [16] it was 32 µg/mL (≈ 40.1 µM); in the assay on Streptococcus pyogenes [17], 32 µg/mL (≈ 40.1 µM); in the assay on Streptococcus pneumoniae [18], 32 µg/mL (≈ 40.1 µM). Also, the MIC in the assay on Streptococcus pyogenes [19] came to 1 µg/mL (≈ 1.25 µM); in assay [20] it was 32 µg/mL (≈ 40.1 µM).

`C=CCO[C@@H]1C[C@@H](C)C(=O)[C@H](C)[C@H]2OC(=O)O[C@]2(C)[C@@H](CC)OC(=O)[C@H](C)[C@@H](OC(=O)Cc2c[nH]c3ccccc23)[C@H](C)C1O[C@@H]1O[C@H](C)C[C@H](N(C)C)[C@H]1O` (stereo not given in full): the MIC in the assay with Streptococcus pneumoniae [1] stood at 32 µg/mL (≈ 40.8 µM); in [2] it was 4 µg/mL (≈ 5.1 µM); in the assay with Staphylococcus aureus [3], 8 µg/mL (≈ 10.2 µM); against Staphylococcus aureus [4] it was 16 µg/mL (≈ 20.4 µM); against Staphylococcus aureus [5], 16 µg/mL (≈ 20.4 µM); against Staphylococcus aureus [6], 16 µg/mL (≈ 20.4 µM). For the same compound, the MIC in assay [7] worked out at 4 µg/mL (≈ 5.1 µM); in the assay on Streptococcus pneumoniae [8] it was 16 µg/mL (≈ 20.4 µM); in assay [9], 32 µg/mL (≈ 40.8 µM); against Streptococcus pyogenes [10], 0.5 µg/mL (≈ 0.637 µM); in the assay on Staphylococcus aureus [11], 8 µg/mL (≈ 10.2 µM); in the assay with Streptococcus pneumoniae [12], 2 µg/mL (≈ 2.55 µM). For the same compound, the MIC turned out to be 0.5 µg/mL (≈ 0.637 µM) against Streptococcus pyogenes [13]; 16 µg/mL (≈ 20.4 µM) against Staphylococcus aureus [14]; 4 µg/mL (≈ 5.1 µM) in assay [15]; 32 µg/mL (≈ 40.8 µM) in [16]; 16 µg/mL (≈ 20.4 µM) in the assay on Streptococcus pyogenes [17]; 32 µg/mL (≈ 40.8 µM) in the assay on Streptococcus pneumoniae [18]. Also, the MIC was found to be 0.5 µg/mL (≈ 0.637 µM) in the assay with Streptococcus pyogenes [19] and 32 µg/mL (≈ 40.8 µM) in [20].

`C=CCO[C@@H]1C[C@@H](C)C(=O)[C@H](C)[C@H]2OC(=O)O[C@]2(C)[C@@H](CC)OC(=O)[C@H](C)[C@@H](OC(=O)COc2ccccc2)[C@H](C)[C@H]1OC1O[C@H](C)C[C@H](N(C)C)[C@H]1O` (stereo not given in full): the MIC came out at 16 µg/mL (≈ 21 µM) in the assay with Streptococcus pneumoniae [1]; 8 µg/mL (≈ 10.5 µM) in [2]; 16 µg/mL (≈ 21 µM) in the assay on Staphylococcus aureus [3]; 32 µg/mL (≈ 42 µM) in the assay with Staphylococcus aureus [4]; 32 µg/mL (≈ 42 µM) against Staphylococcus aureus [5]; 32 µg/mL (≈ 42 µM) against Staphylococcus aureus [6]. The MIC in assay [7] came out at 8 µg/mL (≈ 10.5 µM); with Streptococcus pneumoniae [8], 16 µg/mL (≈ 21 µM); in [9] it was 32 µg/mL (≈ 42 µM); against Streptococcus pyogenes [10], 0.5 µg/mL (≈ 0.656 µM); in the assay on Staphylococcus aureus [11], 16 µg/mL (≈ 21 µM); against Streptococcus pneumoniae [12] it was 2 µg/mL (≈ 2.62 µM). The MIC is 1 µg/mL (≈ 1.31 µM) in the assay on Streptococcus pyogenes [13]; 32 µg/mL (≈ 42 µM) against Staphylococcus aureus [14]; 8 µg/mL (≈ 10.5 µM) in [15]; 32 µg/mL (≈ 42 µM) in assay [16]; 16 µg/mL (≈ 21 µM) in the assay on Streptococcus pyogenes [17]; 32 µg/mL (≈ 42 µM) against Streptococcus pneumoniae [18]. For the same compound, the values for the MIC (against Streptococcus pyogenes [19]; in [20]) were 0.5 µg/mL (≈ 0.656 µM) and 32 µg/mL (≈ 42 µM), respectively.

Consider `C=CCO[C@@H]1C[C@@H](C)C(=O)[C@H](C)[C@H]2OC(=O)O[C@]2(C)[C@@H](CC)OC(=O)[C@H](C)[C@@H](OC(=O)Cc2cccc(F)c2)[C@H](C)[C@H]1O[C@@H]1O[C@H](C)C[C@H](N(C)C)[C@H]1O`, for which the MIC was 2 µg/mL (≈ 2.62 µM) against Streptococcus pneumoniae [1]; 1 µg/mL (≈ 1.31 µM) in [2]; 1 µg/mL (≈ 1.31 µM) in the assay on Staphylococcus aureus [3]; 16 µg/mL (≈ 20.9 µM) in the assay on Staphylococcus aureus [4]; 2 µg/mL (≈ 2.62 µM) against Staphylococcus aureus [5]; 2 µg/mL (≈ 2.62 µM) against Staphylococcus aureus [6]. The MIC turned out to be 1 µg/mL (≈ 1.31 µM) in assay [7]; 4 µg/mL (≈ 5.24 µM) in the assay on Streptococcus pneumoniae [8]; 2 µg/mL (≈ 2.62 µM) in [9]; 0.125 µg/mL (≈ 0.164 µM) with Streptococcus pyogenes [10]; 1 µg/mL (≈ 1.31 µM) in the assay with Staphylococcus aureus [11]; 0.125 µg/mL (≈ 0.164 µM) in the assay with Streptococcus pneumoniae [12]. Further, the MIC in the assay on Streptococcus pyogenes [13] amounted to 0.125 µg/mL (≈ 0.164 µM); in the assay with Staphylococcus aureus [14], 16 µg/mL (≈ 20.9 µM); in assay [15] it was 1 µg/mL (≈ 1.31 µM); in assay [16], 1 µg/mL (≈ 1.31 µM); in the assay with Streptococcus pyogenes [17], 16 µg/mL (≈ 20.9 µM); in the assay with Streptococcus pneumoniae [18], 8 µg/mL (≈ 10.5 µM). The MIC in the assay with Streptococcus pyogenes [19] is 0.125 µg/mL (≈ 0.164 µM); in [20], 32 µg/mL (≈ 41.9 µM).
